Key:
smallflower flatsedge = assay: Test B flood test smallflower flatsedge; format: in vivo, Cyperus difformis
Summary of the method: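 Each value is a visual injury score relative to controls, with 10 meaning complete control and 0 no effect. Evaluation took place twelve to sixteen days after the 2-leaf-stage plants were treated and kept in the greenhouse.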

bedstraw = assay: Test B pre/postemergence bedstraw; format: in vivo, Galium aparine
Summary of the method: (§1)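 Response is a visual 0-to-10 score relative to untreated plants, where 0 means no effect and 10 means complete control, taken twelve to sixteen days after application. Treatments went onto soil at planting and onto foliage of 1- to 4-leaf plants, using a surfactant-containing non-phytotoxic solvent.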

blackgrass = assay: Test B pre/postemergence blackgrass; format: in vivo, Alopecurus myosuroides
Summary of the method: as §1

surinam grass = assay: Test B pre/postemergence surinam grass; format: in vivo, Brachiaria decumbens
Summary of the method: as §1

[1] = Rate 62 g/ha, headed Pre-emergence (flood test species), scale 0 to 10 (0 no effect, 10 complete control)
[2] = Rate 125 g/ha, Pre-emergence, flood test species, scale 0 to 10 where 0 is no effect and 10 is complete control
[3] = Rate 250 g/ha, Pre-emergence, flood-test species, scale 0 to 10, 0 is no effect, 10 is complete control
[4] = Rate 500 g/ha, Pre-emergence, flood test species, scale 0 to 10 (0 no effect, 10 complete control)
[5] = Preemergence, Rate 62 g/ha, scale of 0 to 10 where 0 is no effect and 10 is complete control
[6] = Preemergence, Rate 250 g/ha, scale of 0 to 10 where 0 is no effect and 10 is complete control
[7] = Preemergence, Rate 500 g/ha, scale of 0 to 10 where 0 is no effect and 10 is complete control
[8] = Rate 62 g/ha, Postemergence, scale of 0 to 10 where 0 is no effect and 10 is complete control
[9] = Rate 125 g/ha, Postemergence, scale 0 to 10
[10] = Rate 125 g/ha, Preemergence, scale of 0 to 10 where 0 is no effect and 10 is complete control
[11] = Rate 500 g/ha, Postemergence, scale 0 to 10, 0 no effect, 10 complete control
[12] = Preemergence, Rate 250 g/ha, scale 0 to 10, 0 is no effect, 10 is complete control
[13] = Pre-emergence, Rate 1000 g/ha, scale 0 to 10 (0 no effect, 10 complete control)
[14] = Preemergence, Rate 62 g/ha, scale 0 to 10 (0 no effect, 10 complete control)
[15] = Preemergence, Rate 125 g/ha, 0 is no effect, 10 is complete control
[16] = Preemergence, Rate 500 g/ha, scale 0 to 10 (0 no effect, 10 complete control)
[17] = Postemergence, Rate 125 g/ha, scale of 0 to 10 where 0 is no effect and 10 is complete control
[18] = Rate 250 g/ha, Postemergence, scale 0 to 10, 0 is no effect, 10 is complete control
[19] = Postemergence, Rate 62 g/ha, scale 0 to 10, 0 is no effect, 10 is complete control
[20] = Postemergence, Rate 125 g/ha, scale 0 to 10, 0 is no effect, 10 is complete control
[21] = Rate 62 g/ha, Postemergence, scale 0 to 10 (0 no effect, 10 complete control)
[22] = Rate 250 g/ha, Postemergence, scale of 0 to 10 where 0 is no effect and 10 is complete control
[23] = Postemergence, Rate 1000 g/ha, scale 0 to 10 (0 no effect, 10 complete control)
[24] = Rate 125 g/ha, Postemergence, scale of 0 to 10 where 0 is no effect and 10 is complete control
[25] = Rate 1000 g/ha, Preemergence, scale 0 to 10 (0 no effect, 10 complete control)
[26] = Postemergence, Rate 250 g/ha, scale of 0 to 10, 0 is no effect, 10 is complete control
[27] = Postemergence, Rate 500 g/ha, scale of 0 to 10 where 0 is no effect and 10 is complete control
[28] = Preemergence, Rate 125 g/ha, scale of 0 to 10 where 0 is no effect and 10 is complete control
[29] = Preemergence, Rate 250 g/ha, scale 0 to 10 (0 no effect, 10 complete control)

Compound: CC(C)N(C(=O)n1oc(=O)n(CC2(C)COC2)c1=O)c1ccc(F)cc1 [Compound 226]
- S. Flatsedge plant response rating (smallflower flatsedge; [1]): 0
- S. Flatsedge plant response rating (smallflower flatsedge; [2]): 0
- S. Flatsedge plant response rating (smallflower flatsedge; [3]): 0
- S. Flatsedge plant response rating (smallflower flatsedge; [4]): 0
- Bedstraw plant response rating (bedstraw; [5]): 0
- Bedstraw plant response rating (bedstraw; [6]): 0
- Plant response rating, Bedstraw (bedstraw; [7]): 0
- Bedstraw plant response rating (bedstraw; [8]): 0
- Bedstraw plant response rating (bedstraw; [9]): 3
- Bedstraw plant response rating (bedstraw; [10]): 0
- Plant response rating (0 to 10; 0 is no effect, 10 is complete control), Bedstraw (bedstraw; Rate 250 g/ha, Postemergence): 5
- Bedstraw plant response rating (bedstraw; [11]): 7
- Blackgrass plant response rating (blackgrass; [5]): 10
- Blackgrass plant response rating (blackgrass; [6]): 10
- Plant response rating, Blackgrass (blackgrass; [7]): 10
- Blackgrass plant response rating (blackgrass; [8]): 0
- Blackgrass plant response rating (blackgrass; [9]): 5
- Blackgrass plant response rating (blackgrass; [10]): 10
- Plant response rating (0 to 10; 0 is no effect, 10 is complete control), Blackgrass (blackgrass; Rate 250 g/ha, Postemergence): 8
- Blackgrass plant response rating (blackgrass; [11]): 9
- B. signalgrass plant response rating (surinam grass; [5]): 3
- B. signalgrass plant response rating (surinam grass; [12]): 9
- Plant response rating, B. signalgrass (surinam grass; [7]): 10
- B. signalgrass plant response rating (surinam grass; [8]): 0
- B. signalgrass plant response rating (surinam grass; Rate 125 g/ha, Postemergence, scale 0 (no effect) to 10 (complete control)): 2
- B. signalgrass plant response rating (surinam grass; [10]): 6
- Plant response rating (0 to 10; 0 is no effect, 10 is complete control), B. signalgrass (surinam grass; Rate 250 g/ha, Postemergence): 6
- B. signalgrass plant response rating (surinam grass; [11]): 9

Compound: Cc1cnn(C)c1-n1c(=O)on(C(=O)N(c2ccc(F)cc2)C(C)C)c1=O [Compound 125]
- S. Flatsedge plant response rating (smallflower flatsedge; Postemergence (flood test species), Rate 125 g/ha, scale of 0 to 10 where 0 is no effect and 10 is complete control): 0
- S. Flatsedge plant response rating (smallflower flatsedge; [13]): 0
- S. Flatsedge plant response rating (smallflower flatsedge; Rate 62 g/ha, Postemergence section, flood test species, scale of 0 to 10 where 0 is no effect and 10 is complete control): 0
- Plant response rating, S. Flatsedge (smallflower flatsedge; Rate 250 g/ha, Postemergence (flood test), scale 0 to 10, 0 is no effect, 10 is complete control): 0
- S. Flatsedge plant response rating (smallflower flatsedge; Rate 250 g/ha, headed Pre-emergence (flood test species), scale 0 to 10 (0 no effect, 10 complete control)): 0
- Plant response rating, S. Flatsedge (smallflower flatsedge; Rate 500 g/ha, headed Pre-emergence (flood test species), scale 0 to 10 (0 no effect, 10 complete control)): 0
- S. Flatsedge plant response rating (smallflower flatsedge; Rate 500 g/ha, listed under Postemergence (flood test species), scale 0 to 10): 0
- S. Flatsedge plant response rating (smallflower flatsedge; Rate 2000 g/ha, Pre-emergence (as headed), scale 0 to 10): 0
- Bedstraw plant response rating (bedstraw; [14]): 0
- Bedstraw plant response rating (0 to 10 scale) (bedstraw; [15]): 0
- Bedstraw plant response rating (bedstraw; [12]): 0
- Bedstraw plant response rating (bedstraw; [16]): 0
- Bedstraw plant response rating (bedstraw; [11]): 0
- Blackgrass plant response rating (blackgrass; [17]): 0
- Blackgrass plant response rating (blackgrass; [14]): 0
- Blackgrass plant response rating (0 to 10 scale) (blackgrass; [15]): 0
- Blackgrass plant response rating (blackgrass; [16]): 0
- Blackgrass plant response rating (blackgrass; [8]): 0
- Plant response rating, Blackgrass (blackgrass; [18]): 0
- Blackgrass plant response rating (blackgrass; Rate 500 g/ha, Postemergence, scale 0 to 10): 0
- B. signalgrass plant response rating (surinam grass; [19]): 0
- B. signalgrass plant response rating (surinam grass; [17]): 0
- B. signalgrass plant response rating (surinam grass; [14]): 0
- B. signalgrass plant response rating (0 to 10 scale) (surinam grass; [15]): 0
- B. signalgrass plant response rating (surinam grass; [12]): 0
- B. signalgrass plant response rating (surinam grass; [16]): 0
- Plant response rating, B. signalgrass (surinam grass; [18]): 0
- B. signalgrass plant response rating (surinam grass; Rate 500 g/ha, Postemergence, scale of 0 to 10 where 0 is no effect and 10 is complete control): 0

Compound: Cc1c(-n2c(=O)on(C(=O)N(c3ccc(F)cc3F)C(C)C)c2=O)ccc2ccccc12 [Compound 337]
- S. Flatsedge plant response rating (smallflower flatsedge; [1]): 0
- S. Flatsedge plant response rating (smallflower flatsedge; [2]): 0
- S. Flatsedge plant response rating (smallflower flatsedge; [3]): 0
- S. Flatsedge plant response rating (smallflower flatsedge; [4]): 0
- Plant response rating, Bedstraw (bedstraw; [20]): 1
- Bedstraw plant response rating (bedstraw; [5]): 0
- Bedstraw plant response rating (0 to 10 scale) (bedstraw; Preemergence, Rate 125 g/ha): 0
- Bedstraw plant response rating (bedstraw; [6]): 0
- Bedstraw plant response rating (bedstraw; [7]): 0
- Bedstraw plant response rating (bedstraw; [21]): 0
- Plant response rating, Bedstraw (bedstraw; [22]): 2
- Plant response rating, Bedstraw (bedstraw; [11]): 4
- Plant response rating, Blackgrass (blackgrass; [20]): 0
- Blackgrass plant response rating (blackgrass; [5]): 0
- Blackgrass plant response rating (0 to 10 scale) (blackgrass; Preemergence, Rate 125 g/ha): 0
- Blackgrass plant response rating (blackgrass; [6]): 2
- Blackgrass plant response rating (blackgrass; [7]): 3
- Blackgrass plant response rating (blackgrass; [21]): 0
- Plant response rating, Blackgrass (blackgrass; [22]): 0
- Plant response rating, Blackgrass (blackgrass; [11]): 0
- Plant response rating, B. signalgrass (surinam grass; [20]): 0
- B. signalgrass plant response rating (surinam grass; [5]): 0
- B. signalgrass plant response rating (0 to 10 scale, 0 is no effect, 10 is complete control) (surinam grass; Preemergence, Rate 125 g/ha): 0
- B. signalgrass plant response rating (surinam grass; [6]): 0
- B. signalgrass plant response rating (surinam grass; [7]): 0
- B. signalgrass plant response rating (surinam grass; [21]): 0
- Plant response rating, B. signalgrass (surinam grass; [22]): 0
- Plant response rating, B. signalgrass (surinam grass; [11]): 0

Compound: C=CCn1c(=O)on(C(=O)N(c2ccc(F)cc2)C(C)C(=O)OCC)c1=O (stereo not drawn) [Compound 279]
- S. Flatsedge plant response rating (smallflower flatsedge; [13]): 0
- S. Flatsedge plant response rating (smallflower flatsedge; [2]): 0
- S. Flatsedge plant response rating (smallflower flatsedge; [3]): 0
- S. Flatsedge plant response rating (smallflower flatsedge; [4]): 0
- Bedstraw plant response rating (bedstraw; [23]): 0
- Bedstraw plant response rating (bedstraw; [6]): 0
- Plant response rating, Bedstraw (bedstraw; [7]): 0
- Bedstraw plant response rating (bedstraw; [24]): 0
- Bedstraw plant response rating (bedstraw; [10]): 0
- Plant response rating, Bedstraw (bedstraw; [22]): 0
- Bedstraw plant response rating (bedstraw; [11]): 0
- Plant response rating, Bedstraw (bedstraw; [25]): 0
- Blackgrass plant response rating (blackgrass; [23]): 6
- Blackgrass plant response rating (blackgrass; [6]): 0
- Plant response rating, Blackgrass (blackgrass; [7]): 0
- Blackgrass plant response rating (blackgrass; [24]): 0
- Blackgrass plant response rating (blackgrass; [10]): 0
- Plant response rating, Blackgrass (blackgrass; [22]): 2
- Blackgrass plant response rating (blackgrass; [11]): 4
- Plant response rating, Blackgrass (blackgrass; [25]): 0
- B. signalgrass plant response rating (surinam grass; [23]): 0
- B. signalgrass plant response rating (surinam grass; [6]): 0
- Plant response rating, B. signalgrass (surinam grass; [7]): 0
- B. signalgrass plant response rating (surinam grass; [24]): 0
- B. signalgrass plant response rating (surinam grass; [10]): 0
- Plant response rating, B. signalgrass (surinam grass; [22]): 0
- B. signalgrass plant response rating (surinam grass; [11]): 0
- Plant response rating, B. signalgrass (surinam grass; [25]): 0

Compound: CCOC(Cn1c(=O)on(C(=O)N(c2ccccc2)C(C)C)c1=O)OCC [Compound 632]
- Plant response rating, S. Flatsedge (0 to 10 scale, 0 is no effect, 10 is complete control) (smallflower flatsedge; Rate 62 g/ha, flood test species, Pre-emergence, visual evaluation after twelve to sixteen days): 0
- S. Flatsedge plant response rating (0 to 10 scale, 0 is no effect, 10 is complete control) (smallflower flatsedge; Rate 125 g/ha, under heading Pre-emergence, flood test species, visual evaluation after twelve to sixteen days): 0
- S. Flatsedge plant response rating (smallflower flatsedge; Rate 250 g/ha, Pre-emergence (flood test species), scale 0 to 10, 0 is no effect, 10 is complete control): 0
- S. Flatsedge plant response rating (smallflower flatsedge; Rate 500 g/ha, Pre-emergence section of Table B, 0 to 10 scale (0 no effect, 10 complete control)): 0
- Plant response rating, Bedstraw (bedstraw; [19]): 0
- Plant response rating, Bedstraw (bedstraw; [17]): 0
- Bedstraw plant response rating (bedstraw; [26]): 0
- Plant response rating, Blackgrass (blackgrass; [19]): 0
- Plant response rating, Blackgrass (blackgrass; [17]): 4
- Blackgrass plant response rating (blackgrass; [26]): 6
- Plant response rating, Blackgrass (blackgrass; [27]): 8
- Blackgrass plant response rating (blackgrass; [14]): 2
- Blackgrass plant response rating (blackgrass; [28]): 4
- Plant response rating, Blackgrass (blackgrass; [29]): 7
- Plant response rating, Blackgrass (blackgrass; [7]): 10
- Plant response rating, B. signalgrass (surinam grass; [19]): 0
- Plant response rating, B. signalgrass (surinam grass; [17]): 0
- B. signalgrass plant response rating (surinam grass; [26]): 2
- Plant response rating, B. signalgrass (surinam grass; [27]): 6
- B. signalgrass plant response rating (surinam grass; [14]): 0
- B. signalgrass plant response rating (surinam grass; [28]): 3
- Plant response rating, B. signalgrass (surinam grass; [29]): 6
- Plant response rating, B. signalgrass (surinam grass; [7]): 10
